For series [1] the following is noted: Crystal; DSC.
A short description of series [2]: Molar enthalpy of transition or fusion. As to conditions: Crystal; DSC.

The structures appear in SMILES notation. Numbers after ± are expanded uncertainties.

As for `CC#C[C@]1(O)CC[C@H]2[C@@H]3CCC4=CC(=O)CCC4=C3[C@@H](c3ccc(N(C)C)cc3)C[C@@]21C` [mifepristone], the Triple point temperature in series [1] was determined as 465.45 ± 0.81 K. In addition, the “Molar enthalpy of transition or fusion” value in series [2] came out at 4.64 ± 0.21 kcal/mol.

These data come from the NIST ThermoML archive (doi:10.1021/acs.jced.8b01062).
